Assay results from the supplement of paper PMC4862054.

Experiments:
Test in all cases: normalised response (% of control), CellTiter-Glo; higher = more viable cells (100 = DMSO, 0 = benzethonium chloride kill control)
Settings in all cases: incubation time: 72 h
BT-474 = tested on: BT-474
Summary of the method: (§1)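 A 20 µl suspension of breast cancer cells was seeded into each well of 384-well plates containing compound at 5 concentrations in 10-fold steps over a compound-specific 10,000-fold range. After 72 h incubation, CellTox Green fluorescence (485/520 nm) was read first, and CellTiter-Glo luminescence was read after 10 min at room temperature. Each plate was normalised against 0.1 % DMSO (100) and a positive kill control (0), and each value is the normalised signal at one concentration.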

BT-549 = tested on: BT-549
Summary of the method: as §1

CAL-120 = tested on: CAL-120
Summary of the method: as §1

CAL-148 = tested on: CAL-148
Summary of the method: as §1

CAL-51 = tested on: CAL-51
Summary of the method: as §1

CAL-85-1 = tested on: CAL-85-1
Summary of the method: as §1

DU-4475 = tested on: DU-4475
Summary of the method: as §1

HCC1143 = tested on: HCC1143
Summary of the method: as §1

HCC1599 = tested on: HCC1599
Summary of the method: as §1

HCC1937 = tested on: HCC1937
Summary of the method: as §1

HDQ-P1 = tested on: HDQ-P1
Summary of the method: as §1

Hs578T = tested on: Hs578T
Summary of the method: as §1

MCF-10A = tested on: MCF-10A
Summary of the method: as §1

MDA-MB-231 = tested on: MDA-MB-231
Summary of the method: as §1

MDA-MB-436 = tested on: MDA-MB-436
Summary of the method: as §1

MDA-MB-453 = tested on: MDA-MB-453
Summary of the method: as §1

MDA-MB-468 = tested on: MDA-MB-468
Summary of the method: as §1

MFM-223 = tested on: MFM-223
Summary of the method: as §1

SK-BR-3 = tested on: SK-BR-3
Summary of the method: as §1

Structure (SMILES)	normalised response (BT-474) [%]	normalised response (BT-549) [%]	normalised response (CAL-120) [%]	normalised response (CAL-148) [%]	normalised response (CAL-51) [%]	normalised response (CAL-85-1) [%]	normalised response (DU-4475) [%]	normalised response (HCC1143) [%]	normalised response (HCC1599) [%]	normalised response (HCC1937) [%]	normalised response (HDQ-P1) [%]	normalised response (Hs578T) [%]	normalised response (MCF-10A) [%]	normalised response (MDA-MB-231) [%]	normalised response (MDA-MB-436) [%]	normalised response (MDA-MB-453) [%]	normalised response (MDA-MB-468) [%]	normalised response (MFM-223) [%]	normalised response (SK-BR-3) [%]
Cc1cccc(-c2nn3c(c2-c2ccnc4ccc(C(N)=O)cc24)CCC3)n1 [Galunisertib] (0.1 nM)	108	95.7	104	112	76.9	98.1	105	110	107	104	104	110	109	100	104	107	116	108	109
O=C(NC[C@H](O)CO)c1ccncc1Nc1ccc(I)cc1F [Pimasertib] (1 nM)	100	100	99.8	97.7	62.2	97.9	99.9	93.2	106	100	93.8	97.2	82.8	105	99.5	105	97.5	97.6	98.5
CC/C(=C(\c1ccc(O)cc1)c1ccc(OCCN(C)C)cc1)c1ccccc1 [4-hydroxytamoxifen] (10 nM)	96.7	97.1	98.3	110	88.4	97	103	101	93.5	97	95.7	102	109	96.8	90	112	108	104	98.3
CC[C@@]1(O)C(=O)OCc2c1cc1n(c2=O)Cc2cc3c(CN(C)C)c(O)ccc3nc2-1 [Topotecan] (1 nM)	93.2	97.3	92.5	97.6	68.1	95.6	95.3	92.8	95	97	99.7	105	97.3	97.9	99.3	103	94.7	93.7	99.2
c1cc(CN2CCCNCCNCCCNCC2)ccc1CN1CCCNCCNCCCNCC1 [Plerixafor] (1 nM)	95.8	105	102	98.5	82.4	92.3	91	98.7	105	95.9	103	98.2	81.4	96.9	94.3	87.1	97.3	85.5	81.3
O=C(CCBr)N1CCN(C(=O)CCBr)CC1 [Pipobroman] (1 nM)	96.6	105	99.4	111	106	103	106	99.4	105	104	104	102	103	97.8	91.7	98.1	105	99.1	115
CO[C@@H](C(=O)N1Cc2[nH]nc(NC(=O)c3ccc(N4CCN(C)CC4)cc3)c2C1)c1ccccc1 [Danusertib] (1 nM)	101	102	99.1	98.2	101	96.3	99	91.5	121	95.5	93.9	98	94.2	104	103	110	101	94.8	90.8
COc1nc(N)nc2c1ncn2[C@@H]1O[C@H](CO)[C@@H](O)[C@@H]1O [Nelarabine] (1 nM)	87.9	102	94.5	84.1	117	94.9	89.5	92.3	105	88.8	90.5	94.8	79.1	98.1	86	90.4	84	88.2	86.1
O=C1c2c(O)ccc(O)c2C(=O)c2c(NCCNCCO)ccc(NCCNCCO)c21 [Mitoxantrone] (0.1 nM)	91.8	99.3	103	94.2	101	101	94.2	104	95.3	98.1	102	96.9	103	98.9	84.4	99.3	97.8	97.3	98
CC(=O)OC[C@H]1O[C@@H]([S-])[C@H](OC(C)=O)[C@@H](OC(C)=O)[C@@H]1OC(C)=O.CCP(CC)CC.[Au+] [Auranofin] (2.5 nM)	99.4	95.8	92.5	106	111	95.4	105	97.8	87.5	94.5	91.3	103	107	108	103	99.8	99.2	104	104
O=C(Nc1c[nH]nc1-c1nc2ccc(CN3CCOCC3)cc2[nH]1)NC1CC1 [AT9283] (0.1 nM)	102	89	45.5	99.5	81.9	95.8	101	97	109	99.9	96.8	97.5	97.5	104	97.5	98.4	97.2	100	90
C[C@]12O[C@H](C[C@]1(O)CO)n1c3ccccc3c3c4c(c5c6ccccc6n2c5c31)CNC4=O [Lestaurtinib] (0.1 nM)	96.7	98.4	103	90.7	91.1	103	94.8	99.6	92.7	95	100	97.8	92.9	102	94	100	95.8	96.7	89.2
Cc1c(CN2CCN(C(=O)[C@H](C)O)CC2)sc2c(N3CCOCC3)nc(-c3cnc(N)nc3)nc12 [GDC-0980] (10 nM)	106	101	97.4	117	90.2	96.9	101	106	105	107	94.4	98.3	109	107	104	97.5	113	106	108
CC(C)N(CCCNC(=O)Nc1ccc(C(C)(C)C)cc1)C[C@H]1O[C@@H](n2cc(Br)c3c(N)ncnc32)[C@H](O)[C@@H]1O [SGC0946] (10 nM)	98.8	93.1	92.9	91.2	108	94	93.6	99.9	93.8	89.6	97.2	98.1	97.4	97.5	92.3	89.4	86.9	96.6	105
CCCCC/C=C/C=C1/C(=O)C=C[C@@H]1C/C=C\CCCC(=O)O [15D-PGJ2] (0.8 nM)	103	97.8	100	107	81.2	94.7	102	108	93.8	108	98.9	101	104	102	98.2	97	92.8	102	101
COc1cc(CCc2cc(NC(=O)c3ccc(N4CC(C)NC(C)C4)cc3)n[nH]2)cc(OC)c1 (centres undefined) [AZD4547] (1 nM)	103	94.8	101	85	102	96.9	94.6	97	104	98.4	98.3	98.6	96.7	96	97.2	91.9	97.8	91.9	106
Cc1c(CN2CCN(C(=O)[C@H](C)O)CC2)sc2c(N3CCOCC3)nc(-c3cnc(N)nc3)nc12 [GDC-0980] (1 nM)	111	105	104	112	115	105	104	96.7	110	98.9	103	103	108	109	101	94.9	108	98.8	105
O=S(=O)(c1cccc2cnccc12)N1CCCNCC1 [Fasudil] (5 nM)	97.4	99.6	95.5	105	81.8	102	101	96.1	109	94.8	103	97.3	97.9	101	98	107	103	99.3	101
Nc1ccccc1NC(=O)c1ccc(CNc2nccc(-c3cccnc3)n2)cc1 [Mocetinostat] (1 nM)	100	98.5	102	109	85.2	101	105	96.7	91.5	102	101	99.3	91.6	103	111	114	101	98.1	103
Cc1c(Cn2c(C)nc3c(C(=O)O)cc(N4CCOCC4)cc32)cccc1C(F)(F)F (1 nM)	95.9	99.8	101	101	104	96.9	99.1	108	73.8	96	103	98.5	113	107	95.8	100	97.5	104	106
Cn1cc(CNCC2CCN(c3ncc(C(=O)NO)cn3)CC2)c2ccccc21 [Quisinostat] (1 nM)	107	97.8	96.8	110	121	97.7	102	103	110	97.1	94.3	96.8	107	101	104	105	97	104	102
